Laboratory results from US20230085307A1, “PYRIDAZINONE COMPOUND AND HERBICIDE” (NISSAN CHEMICAL CORPORATION, priority 2019, published 2023).

Legend:
late watergrass [1] = assay: Test Example 1: herbicidal activity, application before weed generation under submerged conditions (Table 16, symbol A); assay type: in vivo, late watergrass (Echinochloa oryzicola); settings: 80 g/ha applied herbicide
Summary of the method: (§1)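 Submerged Wagner pots (alluvial soil, 4 cm water) sown with weed seeds and planted with 2.5-leaf rice seedlings; emulsifiable concentrate diluted in water applied to water surface on sowing day. Held in greenhouse at 25-30 °C; injury scored 0-5 by herbicidal rate after three weeks.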

Japanese bulrush [2] = assay: Test Example 1: herbicidal activity, application before weed generation under submerged conditions (Table 16, symbol B); assay type: in vivo, Japanese bulrush (Schoenoplectus juncoides); settings: 80 g/ha applied herbicide
Summary of the method: as §1

oval-leafed pondweed [3] = assay: Test Example 1: herbicidal activity, application before weed generation under submerged conditions (Table 16, symbol C); assay type: in vivo, oval-leafed pondweed (Monochoria vaginalis); settings: 80 g/ha applied herbicide
Summary of the method: as §1

late watergrass [4] = assay: Test Example 2: herbicidal activity, application during weed generation under submerged conditions (Table 17, symbol A); assay type: in vivo, late watergrass (Echinochloa oryzicola); settings: application during weed generation, submerged conditions
Summary of the method: (§2)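 Steps: fill Wagner pots with alluvial soil; add water to give 4 cm depth; sow the species mixed; grow under glass at 25–30° C.; at 1–2 leaves apply water-diluted emulsion formulation to the water surface at a fixed herbicide amount; score after 3 weeks.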

Japanese bulrush [5] = assay: Test Example 2: herbicidal activity, application during weed generation under submerged conditions (Table 17, symbol B); assay type: in vivo, Japanese bulrush (Schoenoplectus juncoides); settings: application during weed generation, submerged conditions
Summary of the method: as §2

oval-leafed pondweed [6] = assay: Test Example 2: herbicidal activity, application during weed generation under submerged conditions (Table 17, symbol C); assay type: in vivo, oval-leafed pondweed (Monochoria vaginalis); settings: application during weed generation, submerged conditions
Summary of the method: as §2

barnyard grass [7] = assay: Test Example 3: herbicidal effect by foliage application, Wagner pot (Table 18, symbol H); assay type: in vivo, barnyard grass (Echinochloa crus-galli); settings: 320 g/ha
Summary of the method: (§3)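 Plants were sown in alluvial soil held under 0.1–0.5 cm standing water and grown 14 days in a greenhouse at 25–30 °C. An emulsifiable formulation, water-diluted to the set dose, was then sprayed onto the foliage, and effects were scored three weeks later using previously defined criteria.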

Chinese sprangletop = assay: Test Example 3: herbicidal effect by foliage application, Wagner pot (Table 18, symbol D); assay type: in vivo, chinese sprangletop (Leptochloa chinensis); settings: 320 g/ha
Summary of the method: as §3

rice flat sedge = assay: Test Example 3: herbicidal effect by foliage application, Wagner pot (Table 18, symbol E); assay type: in vivo, rice flat sedge (Cyperus iria); settings: 320 g/ha
Summary of the method: as §3

southern crabgrass [8] = assay: Test Example 4: herbicidal effect by soil treatment (Table 19, symbol F); assay type: in vivo, southern crabgrass (Digitaria ciliaris); settings: amount of applied herbicide 320 g/ha
Summary of the method: (§4)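 Pre-emergence style soil spray: seeds under ~1.5 cm sterilized diluvial soil received a uniform coat of emulsion diluted to the predetermined herbicide amount. Greenhouse 25–30° C; readout at week three on previously defined criteria.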

green foxtail [9] = assay: Test Example 4: herbicidal effect by soil treatment (Table 19, symbol G); assay type: in vivo, green foxtail (Setaria viridis); settings: amount of applied herbicide 320 g/ha
Summary of the method: as §4

barnyard grass [10] = assay: Test Example 4: herbicidal effect by soil treatment (Table 19, symbol H); assay type: in vivo, barnyard grass (Echinochloa crus-galli); settings: amount of applied herbicide 320 g/ha
Summary of the method: as §4

wild oat [11] = assay: Test Example 4: herbicidal effect by soil treatment (Table 19, symbol I); assay type: in vivo, wild oat (Avena fatua); settings: amount of applied herbicide 320 g/ha
Summary of the method: as §4

blackgrass [12] = assay: Test Example 4: herbicidal effect by soil treatment (Table 19, symbol J); assay type: in vivo, blackgrass (Alopecurus myosuroides); settings: amount of applied herbicide 320 g/ha
Summary of the method: as §4

Italian ryegrass [13] = assay: Test Example 4: herbicidal effect by soil treatment (Table 19, symbol K); assay type: in vivo, Italian ryegrass (Lolium multiflorum); settings: amount of applied herbicide 320 g/ha
Summary of the method: as §4

windgrass [14] = assay: Test Example 4: herbicidal effect by soil treatment (Table 19, symbol L); assay type: in vivo, windgrass (Apera spica-venti); settings: amount of applied herbicide 320 g/ha
Summary of the method: as §4

velvetleaf [15] = assay: Test Example 4: herbicidal effect by soil treatment (Table 19, symbol M); assay type: in vivo, velvetleaf (Abutilon theophrasti); settings: amount of applied herbicide 320 g/ha
Summary of the method: as §4

redroot pigweed [16] = assay: Test Example 4: herbicidal effect by soil treatment (Table 19, symbol N); assay type: in vivo, redroot pigweed (Amaranthus retroflexus); settings: amount of applied herbicide 320 g/ha
Summary of the method: as §4

lambsquarters [17] = assay: Test Example 4: herbicidal effect by soil treatment (Table 19, symbol O); assay type: in vivo, lambsquarters (Chenopodium album); settings: amount of applied herbicide 320 g/ha
Summary of the method: as §4

chickweed [18] = assay: Test Example 4: herbicidal effect by soil treatment (Table 19, symbol P); assay type: in vivo, common chickweed (Stellaria media); settings: amount of applied herbicide 320 g/ha
Summary of the method: as §4

persian speedwell [19] = assay: Test Example 4: herbicidal effect by soil treatment (Table 19, symbol R); assay type: in vivo, Persian speedwell (Veronica persica); settings: amount of applied herbicide 320 g/ha
Summary of the method: as §4

southern crabgrass [20] = assay: Test Example 5: herbicidal effect by foliage application, plastic box (Table 20, symbol F); assay type: in vivo, southern crabgrass (Digitaria ciliaris); settings: amount of applied herbicide 320 g/ha; foliage application after 14-day growth; evaluated three weeks after application
Summary of the method: (§5)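 Plants were sown into sterilized diluvial soil under about 1.5 cm cover and kept in a greenhouse at 25° C. to 30° C. Fourteen days on, foliage received an even spray of the diluted emulsion. Herbicidal or crop effect was judged three weeks afterwards.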

green foxtail [21] = assay: Test Example 5: herbicidal effect by foliage application, plastic box (Table 20, symbol G); assay type: in vivo, green foxtail (Setaria viridis); settings: amount of applied herbicide 320 g/ha; foliage application after 14-day growth; evaluated three weeks after application
Summary of the method: as §5

barnyard grass [22] = assay: Test Example 5: herbicidal effect by foliage application, plastic box (Table 20, symbol H); assay type: in vivo, barnyard grass (Echinochloa crus-galli); settings: amount of applied herbicide 320 g/ha; foliage application after 14-day growth; evaluated three weeks after application
Summary of the method: as §5

wild oat [23] = assay: Test Example 5: herbicidal effect by foliage application, plastic box (Table 20, symbol I); assay type: in vivo, wild oat (Avena fatua); settings: amount of applied herbicide 320 g/ha; foliage application after 14-day growth; evaluated three weeks after application
Summary of the method: as §5

blackgrass [24] = assay: Test Example 5: herbicidal effect by foliage application, plastic box (Table 20, symbol J); assay type: in vivo, blackgrass (Alopecurus myosuroides); settings: amount of applied herbicide 320 g/ha; foliage application after 14-day growth; evaluated three weeks after application
Summary of the method: as §5

Italian ryegrass [25] = assay: Test Example 5: herbicidal effect by foliage application, plastic box (Table 20, symbol K); assay type: in vivo, Italian ryegrass (Lolium multiflorum); settings: amount of applied herbicide 320 g/ha; foliage application after 14-day growth; evaluated three weeks after application
Summary of the method: as §5

windgrass [26] = assay: Test Example 5: herbicidal effect by foliage application, plastic box (Table 20, symbol L); assay type: in vivo, windgrass (Apera spica-venti); settings: amount of applied herbicide 320 g/ha; foliage application after 14-day growth; evaluated three weeks after application
Summary of the method: as §5

velvetleaf [27] = assay: Test Example 5: herbicidal effect by foliage application, plastic box (Table 20, symbol M); assay type: in vivo, velvetleaf (Abutilon theophrasti); settings: amount of applied herbicide 320 g/ha; foliage application after 14-day growth; evaluated three weeks after application
Summary of the method: as §5

redroot pigweed [28] = assay: Test Example 5: herbicidal effect by foliage application, plastic box (Table 20, symbol N); assay type: in vivo, redroot pigweed (Amaranthus retroflexus); settings: amount of applied herbicide 320 g/ha; foliage application after 14-day growth; evaluated three weeks after application
Summary of the method: as §5

lambsquarters [29] = assay: Test Example 5: herbicidal effect by foliage application, plastic box (Table 20, symbol O); assay type: in vivo, lambsquarters (Chenopodium album); settings: amount of applied herbicide 320 g/ha; foliage application after 14-day growth; evaluated three weeks after application
Summary of the method: as §5

chickweed [30] = assay: Test Example 5: herbicidal effect by foliage application, plastic box (Table 20, symbol P); assay type: in vivo, common chickweed (Stellaria media); settings: amount of applied herbicide 320 g/ha; foliage application after 14-day growth; evaluated three weeks after application
Summary of the method: as §5

persian speedwell [31] = assay: Test Example 5: herbicidal effect by foliage application, plastic box (Table 20, symbol R); assay type: in vivo, Persian speedwell (Veronica persica); settings: amount of applied herbicide 320 g/ha; foliage application after 14-day growth; evaluated three weeks after application
Summary of the method: as §5

## Cc1nn(C)c(=O)c(-c2c(-c3ccccc3)sc3ccc(-c4ccccc4)cc23)c1O [2-166]
Late watergrass [1]
  Herbicidal effect on A: late watergrass (grade 0-5): 2 (Herbicidal rate of 20% or more and less than 40%)
Japanese bulrush [2]
  Herbicidal effect on B: Japanese bulrush (grade 0-5): 0 (Herbicidal rate of 5% or less (almost no effect))
oval-leafed pondweed [3]
  Herbicidal effect on C: oval-leafed pondweed (grade 0-5): 0 (Herbicidal rate of 5% or less (almost no effect))
Late watergrass [4]; AAH 80 g/ha
  herbicidal effect rating, A: late watergrass: 0 (Herbicidal rate of 5% or less (almost no effect))
Japanese bulrush [5]; AAH 80 g/ha
  herbicidal effect rating, B: Japanese bulrush: 3 (Herbicidal rate of 40% or more and less than 70%)
oval-leafed pondweed [6]; AAH 80 g/ha
  herbicidal effect rating, C: oval-leafed pondweed: 0 (Herbicidal rate of 5% or less (almost no effect))

## Cc1nn(C)c(=O)c(-c2c(-c3ccc(F)cc3)sc3cc(Cl)c(Cl)cc23)c1O [5-039]
Late watergrass [4]; AAH 320 g/ha
  herbicidal effect rating, A: late watergrass: 3 (Herbicidal rate of 40% or more and less than 70%)
Japanese bulrush [5]; AAH 320 g/ha
  herbicidal effect rating, B: Japanese bulrush: 0 (Herbicidal rate of 5% or less (almost no effect))
oval-leafed pondweed [6]; AAH 320 g/ha
  herbicidal effect rating, C: oval-leafed pondweed: 0 (Herbicidal rate of 5% or less (almost no effect))
Barnyard grass [7]
  herbicidal effect on barnyard grass (H): 4 (Herbicidal rate of 70% or more and less than 90%)
Chinese sprangletop
  herbicidal effect on Chinese sprangletop (D): 3 (Herbicidal rate of 40% or more and less than 70%)
Rice flat sedge
  herbicidal effect on rice flat sedge (E): 5 (Herbicidal rate of 90% or more (almost completely withered))
Southern crabgrass [8]
  F: southern crabgrass, herbicidal effect grade: 0 (Herbicidal rate of 5% or less (almost no effect))
Green foxtail [9]
  G: green foxtail, herbicidal effect grade: 0 (Herbicidal rate of 5% or less (almost no effect))
Barnyard grass [10]
  H: barnyard grass, herbicidal effect grade: 0 (Herbicidal rate of 5% or less (almost no effect))
Wild oat [11]
  I: wild oat, herbicidal effect grade: 0 (Herbicidal rate of 5% or less (almost no effect))
Blackgrass [12]
  J: blackgrass, herbicidal effect grade: 0 (Herbicidal rate of 5% or less (almost no effect))
Italian ryegrass [13]
  K: Italian ryegrass, herbicidal effect grade: 0 (Herbicidal rate of 5% or less (almost no effect))
Windgrass [14]
  L: windgrass, herbicidal effect grade: 0 (Herbicidal rate of 5% or less (almost no effect))
Velvetleaf [15]
  M: velvetleaf, herbicidal effect grade: 0 (Herbicidal rate of 5% or less (almost no effect))
Redroot pigweed [16]
  N: redroot pigweed, herbicidal effect grade: 3 (Herbicidal rate of 40% or more and less than 70%)
Lambsquarters [17]
  O: lambsquarters, herbicidal effect grade: 1 (Herbicidal rate of 5% or more and less than 20%)
Chickweed [18]
  P: chickweed, herbicidal effect grade: 0 (Herbicidal rate of 5% or less (almost no effect))
Persian speedwell [19]
  R: persian speedwell, herbicidal effect grade: 0 (Herbicidal rate of 5% or less (almost no effect))
Southern crabgrass [20]
  Herbicidal effect by foliage application, F: southern crabgrass: 4 (Herbicidal rate of 70% or more and less than 90%)
Green foxtail [21]
  Herbicidal effect by foliage application, G: green foxtail: 5 (Herbicidal rate of 90% or more (almost completely withered))
Barnyard grass [22]
  Herbicidal effect by foliage application, H: barnyard grass: 4 (Herbicidal rate of 70% or more and less than 90%)
Wild oat [23]
  Herbicidal effect by foliage application, I: wild oat: 5 (Herbicidal rate of 90% or more (almost completely withered))
Blackgrass [24]
  Herbicidal effect by foliage application, J: blackgrass: 4 (Herbicidal rate of 70% or more and less than 90%)
Italian ryegrass [25]
  Herbicidal effect by foliage application, K: Italian ryegrass: 4 (Herbicidal rate of 70% or more and less than 90%)
Windgrass [26]
  Herbicidal effect by foliage application, L: windgrass: 5 (Herbicidal rate of 90% or more (almost completely withered))
Velvetleaf [27]
  Herbicidal effect by foliage application, M: velvetleaf: 3 (Herbicidal rate of 40% or more and less than 70%)
Redroot pigweed [28]
  Herbicidal effect by foliage application, N: redroot pigweed: 5 (Herbicidal rate of 90% or more (almost completely withered))
Lambsquarters [29]
  Herbicidal effect by foliage application, O: lambsquarters: 5 (Herbicidal rate of 90% or more (almost completely withered))
Chickweed [30]
  Herbicidal effect by foliage application, P: chickweed: 5 (Herbicidal rate of 90% or more (almost completely withered))
Persian speedwell [31]
  Herbicidal effect by foliage application, R: persian speedwell: 4 (Herbicidal rate of 70% or more and less than 90%)
